Assays:
[1] = system: phosphorylation of NDRG1 at Thr346; test: NDRG1 phosphorylation in HEK293 cells, immunoblot; type: cell-based; settings: HEK293, 8 h, 0.3 μM SGK3-PROTAC1, 1 μM 14H, 1 μM 308-R
Description: Figure 3 Characterization of cellular activities of SGK3-PROTAC1 and cisSGK3-PROTAC1. (A) HEK293 cells were first treated for 8 h with 0.03–3 μM SGK3-PROTAC1 and cisSGK3-PROTAC1. One hour before lysis, cells were treated with 3 μM AZD5363. Lysates were subjected to immunoblot analysis with the indicated antibodies. […] Lysates were subjected to immunoblot analysis with the indicated antibodies. (C) HEK293 cells were treated for up to 48 h with SGK3-PROTAC1 (0.3 μM), and lysates were analyzed by immunoblot analysis using the indicated antibodies. (D) HEK293 cells were treated for 24 h with SGK3-PROTAC1. Cells were washed three times with DMEM to wash out the compound, and recovery of SGK3 expression protein was analyzed by immunoblot analysis. (E–G) As in A except that CAMA-1 (E), ZR-75-1 (F), and JIMT-1 (G) cells were employed rather than HEK293 cells.
To study the impact of SGK3-PROTAC1 on phosphorylation of a physiological substrate, we monitored phosphorylation of NDRG1 at Thr346.[37] This site is also phosphorylated by Akt; therefore we treated cells with increasing doses of SGK3-PROTAC1 and cisSGK3-PROTAC1 for 8 h, with the addition of an Akt inhibitor (3 μM AZD5363) 1 h before lysis, to remove the impact of Akt phosphorylation of NDRG1. […] Concentrations of cisSGK3-PROTAC1 of above 1 μM were required to lower NDRG1 phosphorylation. […] This is consistent with previous work in HEK293 cells showing that inhibition of both Akt and SGK3 is required to block NDRG1 phosphorylation.[8],[37]
All cell treatments were carried out as described in figure legends, to a final DMSO concentration of 0.1% (v/v). Lysates were quantified. Immunoblotting was performed using standard procedures, described in brief below. Lysate concentration was quantified by Bradford Assay, and 10 μg of lysate was loaded in the LDS sample buffer for SDS-PAGE electrophoresis on Novex 4–12% Bis–Tris gels. Proteins were electrophoretically transferred onto nitrocellulose membranes (Amersham Protran 0.45 μm NC; GE Healthcare) at 80 V for 80 min on ice in transfer buffer. Transferred membranes were blocked with 5% (w/v) nonfat dry milk dissolved in TBS-T [20 mM Tris/HCl, pH 7.5, 150 mM NaCl, and 0.1% (v/v) Tween 20] at RT for 30 min, before incubation with the primary antibody overnight at 4 °C. The signal was produced with near-infrared secondary antibodies and detected using a Licor Biosciences Odyssey System, and the signal was quantified in Image Studio Lite.

CAMA-1 cells = test: Cell growth (confluency, Incucyte S3); type: cell-based; settings: CAMA-1; 1 μM GDC0941 or AZD5363; SGK3-PROTAC1/cisSGK3-PROTAC1 0.3 μM, 14H 3 μM
Description: (§1) Figure 6 SGK3-PROTAC1-mediated degradation of SGK3 further inhibiting the growth of cancer cell lines treated with PI3K-Akt pathway inhibitors. CAMA-1 (A, C) and ZR-75-1 (B, D) were treated with compounds as indicated either as monotherapy or in combination, and confluency was measured on the Incucyte S3 every 4 h for up to 4 weeks.
(§2) For growth assays, ZR-75-1 cells were seeded in 96-well plates at a density of 6000 cells/well and left to adhere overnight. Cells were then treated with compounds as described in the figure legends and imaged every 4 h on the Incucyte S3 (Essen Bioscience) for up to 4 weeks to give a measure of cell confluency. Media were refreshed every 4–5 days.
(§3) Supplementary Figure S3. SGK3-PROTAC compounds have no effect on cell growth. CAMA-1 and ZR-75-1
(§4) confluency was m easured every 4 h on Incucyte S3.
(§5) (1 picture or pasted object on this page, not shown here)

ZR-75-1 cells = test: Cell growth (confluency, Incucyte S3); type: cell-based; settings: ZR-75-1; 1 μM GDC0941 or AZD5363; SGK3-PROTAC1/cisSGK3-PROTAC1 0.3 μM, 14H 3 μM
Description: as §1, §2, §3, §4, §5

SGK3 = biological target: T1, SGK3 (Homo sapiens, UniProt Q96BR1); set-up: method as in PMID 27481935; settings: cited from earlier work
T1 sequence (Q96BR1 1-496): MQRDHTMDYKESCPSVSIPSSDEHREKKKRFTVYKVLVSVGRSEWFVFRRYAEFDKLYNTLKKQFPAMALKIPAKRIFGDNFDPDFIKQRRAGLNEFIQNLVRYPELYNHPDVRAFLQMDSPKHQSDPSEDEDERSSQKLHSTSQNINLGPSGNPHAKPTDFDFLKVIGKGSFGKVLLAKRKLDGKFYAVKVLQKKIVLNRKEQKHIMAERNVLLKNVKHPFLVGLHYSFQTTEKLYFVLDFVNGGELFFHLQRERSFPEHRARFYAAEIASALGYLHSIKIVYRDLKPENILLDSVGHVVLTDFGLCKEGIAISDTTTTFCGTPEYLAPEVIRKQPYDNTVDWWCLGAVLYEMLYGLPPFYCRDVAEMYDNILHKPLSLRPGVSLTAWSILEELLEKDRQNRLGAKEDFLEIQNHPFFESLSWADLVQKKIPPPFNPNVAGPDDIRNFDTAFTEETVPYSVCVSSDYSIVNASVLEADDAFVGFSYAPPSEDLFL

SGK1 = biological target: T2, SGK1 (Homo sapiens, UniProt O00141, S422D); set-up: method as in PMID 27481935; settings: cited from earlier work
T2 sequence (O00141 60-431 S422D limits assumed): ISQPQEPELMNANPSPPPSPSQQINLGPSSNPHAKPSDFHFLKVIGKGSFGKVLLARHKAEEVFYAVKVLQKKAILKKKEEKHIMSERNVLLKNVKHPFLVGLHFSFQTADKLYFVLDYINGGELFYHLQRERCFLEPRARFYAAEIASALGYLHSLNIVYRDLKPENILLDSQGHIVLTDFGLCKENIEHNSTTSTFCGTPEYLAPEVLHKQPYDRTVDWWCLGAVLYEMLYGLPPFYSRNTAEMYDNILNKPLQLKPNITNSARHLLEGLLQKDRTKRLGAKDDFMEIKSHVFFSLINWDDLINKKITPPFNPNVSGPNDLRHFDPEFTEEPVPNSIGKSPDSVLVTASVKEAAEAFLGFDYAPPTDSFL

S6K1 = S6K1 (Homo sapiens, UniProt P23443, T412E); set-up: method as in PMID 27481935; settings: cited from earlier work
S6K1, sequence (P23443 1-421 T412E limits assumed): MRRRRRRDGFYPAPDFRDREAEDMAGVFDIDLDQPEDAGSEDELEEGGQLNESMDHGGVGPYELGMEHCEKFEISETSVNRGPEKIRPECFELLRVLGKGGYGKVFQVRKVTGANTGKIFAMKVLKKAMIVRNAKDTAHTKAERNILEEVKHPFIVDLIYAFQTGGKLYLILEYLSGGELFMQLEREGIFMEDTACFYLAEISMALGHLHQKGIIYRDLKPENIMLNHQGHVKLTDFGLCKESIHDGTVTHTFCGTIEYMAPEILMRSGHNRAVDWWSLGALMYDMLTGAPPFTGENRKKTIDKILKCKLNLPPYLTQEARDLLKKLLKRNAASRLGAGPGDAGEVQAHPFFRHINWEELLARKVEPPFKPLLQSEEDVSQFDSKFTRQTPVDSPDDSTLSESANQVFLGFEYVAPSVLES

With `Nc1n[nH]c2nc(-c3ccc(NS(=O)(=O)c4cc(Cl)ccc4Cl)cc3)ncc12` [14H, reference compound] the pNDRG1 phosphorylation ([1]; basal, no inhibition of Akt) was “minimal effect”, the NDRG1 phosphorylation ([1]; in the presence of 3 μM AZD5363) was “markedly suppressed” and the “growth in combination with GDC0941 or AZD5363” value (CAMA-1 cells) was “further suppressed cell growth”. For the same molecule, the “growth in combination with GDC0941 or AZD5363” value (ZR-75-1 cells) was “further suppressed cell growth”, the IC50 (SGK3) was 4 nM and the IC50 (SGK1) was 10 nM. The IC50 (S6K1) was 76 nM.
